Measured values from publication PMC10302047, “Structure–Activity Relationship Studies of Indolglyoxyl-Polyamine Conjugates as Antimicrobials and Antibiotic Potentiators” (Pharmaceuticals, 2023).
In brackets after ≈: the same amount, converted by molar mass. Like-named read-outs stand apart in the source and are kept apart here. Marks after values point to notes of the source that are not given here.

Columns and labels:
MRSA ATCC 43300 = test: Antimicrobial susceptibility (MIC), MRSA; type: cell-based; settings: Staphylococcus aureus; MRSA ATCC 43300; mean (n = 2); read-out: MIC MRSA
Procedure: (§1) The susceptibility of bacterial strains S. aureus (ATCC 25923), E. coli (ATCC 25922) and P. aeruginosa (ATCC 27853) to antibiotics and compounds was determined according to previously reported protocols. Additional antimicrobial evaluation against MRSA (ATCC 43300) and C. albicans (ATCC 90028) was undertaken at the Community for Open Antimicrobial Drug Discovery at The University of Queensland (Australia) according to their standard protocols as reported previously.

human red blood cells = test: Hemolytic assay; type: cell-based; settings: mean (n = 2)
Procedure: Hemolysis assays were conducted according to previously reported protocols.

S. aureus ATCC 25923 [1] = settings: S. aureus ATCC 25923; ref Cadelis et al. [16]; cited from earlier work
P. aeruginosa ATCC 27853 [2] = system: P. aeruginosa ATCC 27853; set-up: method as in Cadelis et al. [16]; settings: ref Cadelis et al. [16]; cited from earlier work
E. coli ATCC 25922 [3] = system: E. coli ATCC 25922; set-up: method as in Cadelis et al. [16]; settings: ref Cadelis et al. [16]; cited from earlier work
C. albicans ATCC 90028 [4] = system: C. albicans ATCC 90028; set-up: method as in Cadelis et al. [16]; settings: ref Cadelis et al. [16]; cited from earlier work
[5] = system: HEK293 (human embryonic kidney cells); settings: HEK293; ref Cadelis et al. [16]; read-out: Cyto. IC50 (concentration of compound at 50% cytotoxicity); cited from earlier work
P. aeruginosa ATCC 27853 [6] = settings: doxycycline at 2 µg/mL (4.5 µM), P. aeruginosa ATCC 27853; ref Cadelis et al. [16]; cited from earlier work
S. aureus ATCC 25923 [7] = test: Antimicrobial susceptibility (MIC), S. aureus; type: cell-based, Staphylococcus aureus; settings: Staphylococcus aureus, ATCC25923; S. aureus ATCC 25923; mean (n = 3)
Procedure: as §1

P. aeruginosa ATCC 27853 [8] = test: Antimicrobial susceptibility (MIC), P. aeruginosa; type: cell-based; settings: Pseudomonas aeruginosa, ATCC27853, mean (n = 3), read-out: MIC P. a
Procedure: as §1

E. coli ATCC 25922 [9] = test: Antimicrobial susceptibility (MIC), E. coli; type: cell-based; settings: Escherichia coli, ATCC25922, mean (n = 3)
Procedure: as §1

C. albicans ATCC 90028 [10] = test: Antifungal susceptibility (MIC), C. albicans; type: cell-based; settings: Candida albicans, ATCC90028, mean (n = 2)
Procedure: as §1

[11] = Cytotoxicity assay HEK293; type: cell-based, human; settings: human, HEK293 cells, mean (n = 2), read-out: Cyto. IC50 (concentration of compound at 50% cytotoxicity)
Procedure: Cytotoxicity assays were conducted according to previously reported protocols.

P. aeruginosa ATCC 27853 [12] = test: Antibiotic potentiation (MIC of antibiotics in the presence of synergizing compounds), P. aeruginosa; type: cell-based, Pseudomonas aeruginosa; settings: for Conc (µM) for Potentiation of doxycycline: concentration required to restore doxycycline activity at 2 µg/mL (4.5 µM) against P. aeruginosa ATCC 27853
E. coli ATCC 25922 [13] = test: Antibiotic potentiation, E. coli; type: cell-based, Escherichia coli; settings: mean (n = 3)
Procedure: (§2) Antibiotic enhancing activities were determined according to previously reported protocols.

[14] = system: Klebsiella pneumoniae ST258; test: Antibiotic potentiation, K. pneumoniae; type: cell-based; settings: mean (n = 3)
Procedure: as §2

A. baumannii AYE = test: Antibiotic potentiation, A. baumannii; type: cell-based, Acinetobacter baumannii; settings: mean (n = 3)
Procedure: as §2

| Structure (SMILES) | MIC (MRSA ATCC 43300) | Hem. HC10 (concentration of compound at 10% hemolytic activity) (human red blood cells) | MIC S. a (S. aureus ATCC 25923 [1]) | MIC P. a (P. aeruginosa ATCC 27853 [2]) | MIC E. c (E. coli ATCC 25922 [3]) | MIC C. a (C. albicans ATCC 90028 [4]) | IC50 [5] | Conc (µM) for Potentiation of doxycycline (P. aeruginosa ATCC 27853 [6]) | MIC (S. aureus ATCC 25923 [7]) | MIC (P. aeruginosa ATCC 27853 [8]) | MIC (E. coli ATCC 25922 [9]) | MIC (C. albicans ATCC 90028 [10]) | IC50 [11] | Conc (µM) for Potentiation of doxycycline (P. aeruginosa ATCC 27853 [12]) | further results |
| --- | --- | --- | --- | --- | --- | --- | --- | --- | --- | --- | --- | --- | --- | --- | --- |
| O=C(NCCCNCCCCNCCCNC(=O)C(=O)c1c[nH]c2ccccc12)C(=O)c1c[nH]c2ccccc12 [Compound 2] | 41.4 µM (≈ 22.5 µg/mL) | >41 µM | >100 ^h µM | >100 ^h µM | >100 ^h µM | >41.4 ^h µM | > 41 µM | – | – | – | – | – | – | – | – |
| O=C(NCCCNCCCCNCCCNC(=O)C(=O)c1c[nH]c2ccc(Br)cc12)C(=O)c1c[nH]c2ccc(Br)cc12 [Compound 3] | 4.32 µM (≈ 3.03 µg/mL) | >34 µM | 3.125 ^h µM | 50 ^h µM | 25 ^h µM | >34.4 ^h µM | 14 µM | 3.125 ^b µM | – | – | – | – | – | – | – |
| COc1ccc2[nH]cc(C(=O)C(=O)NCCCNCCCCNCCCNC(=O)C(=O)c3c[nH]c4ccc(OC)cc34)c2c1 [Compound 4] | 38.4 µM (≈ 23.2 µg/mL) | >38 µM | 100 ^h µM | >200 ^h µM | >200 ^h µM | >38.4 ^h µM | > 38 µM | 12.5 ^b µM | – | – | – | – | – | – | – |
| Cc1ccc2[nH]cc(C(=O)C(=O)NCCCNCCCCNCCCNC(=O)C(=O)c3c[nH]c4ccc(C)cc34)c2c1 [Compound 5] | 20 µM (≈ 11.5 µg/mL) | >40 µM | 25 ^h µM | 100 ^h µM | 200 ^h µM | >40.0 ^h µM | > 40 µM | 6.25 ^b µM | – | – | – | – | – | – | – |
| O=C(NCCCNCCCCNCCCNC(=O)C(=O)c1c[nH]c2c(F)cccc12)C(=O)c1c[nH]c2c(F)cccc12 [Compound 6] | 19.8 µM (≈ 11.5 µg/mL) | >40 µM | 25 ^h µM | 200 ^h µM | 200 ^h µM | >39.6 ^h µM | 19 µM | 3.125 ^b µM | – | – | – | – | – | – | – |
| COc1cccc2c(C(=O)C(=O)NCCCNCCCCNCCCNC(=O)C(=O)c3c[nH]c4c(OC)cccc34)c[nH]c12 [Compound 7] | 38.4 µM (≈ 23.2 µg/mL) | >38 µM | 15 ^h µM | >200 ^h µM | >200 ^h µM | 38.4 ^h µM | 27 µM | 3.75 ^b µM | – | – | – | – | – | – | – |
| Cc1cccc2c(C(=O)C(=O)NCCCNCCCCNCCCNC(=O)C(=O)c3c[nH]c4c(C)cccc34)c[nH]c12 [Compound 8] | 20 µM (≈ 11.5 µg/mL) | >40 µM | 25 ^h µM | >200 ^h µM | >200 ^h µM | >40.0 ^h µM | > 40 µM | 6.25 ^b µM | – | – | – | – | – | – | – |
| O=C(NCCCNCCCCCCNCCCNC(=O)C(=O)c1c[nH]c2c(F)cccc12)C(=O)c1c[nH]c2c(F)cccc12.O=C(O)C(F)(F)F.O=C(O)C(F)(F)F [Compound 21a, N^1,N^6-Bis(3-(2-(7-fluoro-1H-indol-3-yl)-2-oxoacetamido)propyl)hexane-1,6-diaminium 2,2,2-trifluoroacetate] | 19.1 µM | >38 ^e µM | – | – | – | – | – | – | 7.5 µM | 240 µM | 240 µM | > 38 µM | 12 µM | – | Concentration (µM) for Potentiation of erythromycin (P. aeruginosa ATCC 27853 [12]; P. aeruginosa ATCC 27853, erythromycin 2 µg/mL, mean (n = 3)): 100 µM; Concentration (µM) for Potentiation of chloramphenicol (E. coli ATCC 25922 [13]; chloramphenicol 2 µg/mL): >200 µM; Concentration (µM) for Potentiation of doxycycline (E. coli ATCC 25922 [13]; doxycycline 2 µg/mL): 1.56 µM; Concentration (µM) for Potentiation of erythromycin (E. coli ATCC 25922 [13]; erythromycin 2 µg/mL): 200 µM; Concentration (µM) for Potentiation of nalidixic acid (E. coli ATCC 25922 [13]; nalidixic acid 2 µg/mL): 200 µM; Concentration (µM) for Potentiation of chloramphenicol ([14]; chloramphenicol 2 µg/mL): >200 µM; Concentration (µM) for Potentiation of doxycycline ([14]; doxycycline 2 µg/mL): 200 µM; Concentration (µM) for Potentiation of erythromycin ([14]; erythromycin 2 µg/mL): >200 µM; Concentration (µM) for Potentiation of nalidixic acid ([14]; nalidixic acid 2 µg/mL): >200 µM; Concentration (µM) for Potentiation of chloramphenicol (A. baumannii AYE; chloramphenicol 2 µg/mL): 200 µM; Concentration (µM) for Potentiation of doxycycline (A. baumannii AYE; doxycycline 2 µg/mL): 12.5 µM; Concentration (µM) for Potentiation of erythromycin (A. baumannii AYE; erythromycin 2 µg/mL): 100 µM; Concentration (µM) for Potentiation of nalidixic acid (A. baumannii AYE; nalidixic acid 2 µg/mL): 200 µM; Concentration (µM) for Potentiation, no antibiotic (A. baumannii AYE; no antibiotic): 100 µM |
| COc1cccc2c(C(=O)C(=O)NCCCNCCCCCCNCCCNC(=O)C(=O)c3c[nH]c4c(OC)cccc34)c[nH]c12.O=C(O)C(F)(F)F.O=C(O)C(F)(F)F [Compound 22a, N^1,N^6-Bis(3-(2-(7-methoxy-1H-indol-3-yl)-2-oxoacetamido)propyl)hexane-1,6-diaminium 2,2,2-trifluoroacetate] | > 37 µM | >37 µM | – | – | – | – | – | – | 50 µM | 800 µM | 400 µM | > 37 µM | > 37 µM | 100 µM | – |
| COc1cccc2c(C(=O)C(=O)NCCCNCCCCCCCNCCCNC(=O)C(=O)c3c[nH]c4c(OC)cccc34)c[nH]c12.O=C(O)C(F)(F)F.O=C(O)C(F)(F)F [Compound 22b, N^1,N^7-Bis(3-(2-(7-methoxy-1H-indol-3-yl)-2-oxoacetamido)propyl)heptane-1,7-diaminium 2,2,2-trifluoroacetate] | > 37 µM | >37 µM | – | – | – | – | – | – | 25 µM | 800 µM | 200 µM | > 37 µM | 8.9 µM | 100 µM | – |
| COc1cccc2c(C(=O)C(=O)NCCCNCCCCCCCCCCNCCCNC(=O)C(=O)c3c[nH]c4c(OC)cccc34)c[nH]c12.O=C(O)C(F)(F)F.O=C(O)C(F)(F)F [Compound 22d, N^1,N^10-Bis(3-(2-(7-methoxy-1H-indol-3-yl)-2-oxoacetamido)propyl)decane-1,10-diaminium 2,2,2-trifluoroacetate] | ≤ 0.27 µM | 8.4 µM | – | – | – | – | – | – | 25 µM | 800 µM | 50 µM | 17 µM | > 35 µM | 400 µM | – |
| Cc1cccc2c(C(=O)C(=O)NCCCNCCCCCCNCCCNC(=O)C(=O)c3c[nH]c4c(C)cccc34)c[nH]c12.O=C(O)C(F)(F)F.O=C(O)C(F)(F)F [Compound 23a, N^1,N^6-Bis(3-(2-(7-methyl-1H-indol-3-yl)-2-oxoacetamido)propyl)hexane-1,6-diaminium 2,2,2-trifluoroacetate] | ≤ 0.3 µM | >39 µM | – | – | – | – | – | – | 30.2 µM | > 240 µM | 60 µM | > 39 µM | > 39 µM | 60 µM | – |
| Cc1cccc2c(C(=O)C(=O)NCCCNCCCCCCCCCCCCNCCCNC(=O)C(=O)c3c[nH]c4c(C)cccc34)c[nH]c12.O=C(O)C(F)(F)F.O=C(O)C(F)(F)F [Compound 23e, N^1,N^12-Bis(3-(2-(7-methyl-1H-indol-3-yl)-2-oxoacetamido)propyl)dodecane-1,12-diaminium 2,2,2-trifluoroacetate] | ≤ 0.27 µM | 8.4 µM | – | – | – | – | – | – | 6.85 µM | > 220 µM | 13.7 µM | ≤ 0.27 µM | > 35 µM | 220 µM | – |
